Where two headings read alike, the source gives them in different places.
Experiments:
[1] = system: primary canine DLBCL cells; experiment: MTS cell viability assay, primary canine DLBCL samples; type: cell-based
Experimental: (§1) Cryopreserved tumor cells obtained from sterile lymph node biopsy samples from dogs with diffuse large B cell lymphoma (DLBCL) were cultured with 100 ng/mL of megaCD40L (Enzo Life Science, Plymouth Meeting, PA) as previously described, [27]. The human T-cell leukemia cell line, Jurkat, was from the American Type Culture Collection (ATCC, Manassas, VA) and cultured in RPMI1640 medium (Gibco/BRL, Grand Island, NY) containing 10% fetal bovine serum (FBS; Atlas Biologicals, Fort Collins, CO), 2-mercaptoethanol (Gibco/BRL), HEPES, L-glutamine, sodium pyruvate (Mediatech Inc., Manassas, VA), non-essential amino acids (Sigma Aldrich, St. Louis, MO), and Primocin (Invivogen, San Diego, CA). The canine DLBCL cell line CLBL1 obtained from Dr. Barbara Rütgen (University of Vienna, Austria), [29] and human DLBCL cell lines OCI-Ly3 [30], [31] and OCI-Ly10 [32] obtained from Dr. Anne Novak (Mayo Clinic Cancer Center, Rochester, MN) were cultured in complete Iscove’s Modified Dulbecco’s medium (IMDM) containing 20% FBS, L-glutamine, and Primocin. All cells were maintained at 37°C in a humidified 5% CO2 atmosphere. The following additional canine tumor cell lines were used to evaluate response to SINE compounds: C2, mast cell tumor line provided by Dr. George Caughey, UCSF, San Francisco, CA [33]; OSA16, osteosarcoma cell line, provided by Dr. Jaime Modiano, UM, Minneapolis, MN [34]; and 323610-3, malignant melanoma cell line, provided by Dr. Michael Kent, UCD, Davis, CA [35]. All cell lines were cultured in complete RPMI media containing 10% FBS, antibiotic/antimycotic, HEPES, sodium pyruvate, nonessential amino acids and Glutamax (media supplements from Gibco).
(§2) Cell viability for lymphoid lines was determined by the MTS (3-(4, 5-dimethylthiazol-2-yl)-5-(3-carboxymethoxyphenyl)-2-(4-sulfophenyl)-2H-tetrazolium) assay using CellTiter 96® AQueous One Solution Cell Proliferation Assay Kit (Promega, Madison, WI). Briefly, for lymphoid cell lines, 5×10^4 cells (or 1×10^5 primary DLBCL cells) were cultured in 100 µL of complete medium in 96-well plates in the presence of SINE compounds. After 72 hours, 20 µL of MTS solution was added to each well and cells were incubated for another 4 hours before measuring absorbance at 490 nm using a Wallac Victor 1420 Multilabel Counter (Perkin Elmer, Waltham, MA). The IC50 of SINE was calculated using Prism 6 software (GraphPad Software, Inc., La Jolla, CA).

Jurkat cells = experiment: MTS cell viability assay, Jurkat; type: cell-based, human; conditions: 72 hours, read-out: IC50 (± S.D.), Jurkat
Experimental: as §1, with “All cell lines were cultured in complete RPMI media containing 10% FBS, antibiotic/antimycotic, HEPES, sodium pyruvate, nonessential amino acids and Glutamax (media supplements from Gibco).” left out
as §2, with “Briefly, for lymphoid cell lines, 5×10^4 cells (or 1×10^5 primary DLBCL cells) were cultured in 100 µL of complete medium in 96-well plates in the presence of SINE compounds.” left out

XPO1 = XPO1 inhibition activity; type: biochemical
Oral bioavailability = type: in vivo; conditions: in vivo, po
OCI-Ly10 DLBCL cells = experiment: MTS cell viability assay, OCI-Ly10; type: cell-based, human; conditions: 72 hours, read-out: IC50 (± S.D.), OCI-Ly10
Experimental: (§3) Cryopreserved tumor cells obtained from sterile lymph node biopsy samples from dogs with diffuse large B cell lymphoma (DLBCL) were cultured with 100 ng/mL of megaCD40L (Enzo Life Science, Plymouth Meeting, PA) as previously described, [27]. The human T-cell leukemia cell line, Jurkat, was from the American Type Culture Collection (ATCC, Manassas, VA) and cultured in RPMI1640 medium (Gibco/BRL, Grand Island, NY) containing 10% fetal bovine serum (FBS; Atlas Biologicals, Fort Collins, CO), 2-mercaptoethanol (Gibco/BRL), HEPES, L-glutamine, sodium pyruvate (Mediatech Inc., Manassas, VA), non-essential amino acids (Sigma Aldrich, St. Louis, MO), and Primocin (Invivogen, San Diego, CA). […]
as §2, with “Briefly, for lymphoid cell lines, 5×10^4 cells (or 1×10^5 primary DLBCL cells) were cultured in 100 µL of complete medium in 96-well plates in the presence of SINE compounds.” left out

OCI-Ly3 DLBCL cells = experiment: MTS cell viability assay, OCI-Ly3; type: cell-based, human; conditions: 72 hours, read-out: IC50 (± S.D.), OCI-Ly3
Experimental: as §3
as §2, with “Briefly, for lymphoid cell lines, 5×10^4 cells (or 1×10^5 primary DLBCL cells) were cultured in 100 µL of complete medium in 96-well plates in the presence of SINE compounds.” left out

[2] = primary sample #5, 72 hours, read-out: IC50, DLBCL#5

In the case of `COc1cc(-c2ncn(/C=C/C(=O)OC(C)C)n2)cc(C(F)(F)F)c1` [KPT-185 trans], the IC50 [1, 2] is reported as greater than 1000 nM, the IC50 (Jurkat cells) is reported as greater than 1000 nM and the “XPO1 inhibition activity, fold less than the cis-isomer” value (XPO1) is reported as roughly 100 fold.

For `COc1cc(-c2ncn(/C=C\C(=O)OC(C)C)n2)cc(C(F)(F)F)c1` [KPT-185], the oral bioavailability (Oral bioavailability) was “limited oral bioavailability”, the IC50 ([1]; mean of primary canine DLBCL samples (n = 6), 72 hours, read-out: IC50 (± S.D.), Canine DLBCLs) was 13.3 ± 6.2 nM and the IC50 ([1]; primary sample #1, 72 hours, read-out: IC50, DLBCL#1) was 13.1 nM. It also gave an IC50 ([1]; primary sample #2, 72 hours, read-out: IC50, DLBCL#2) of 9 nM, an IC50 ([1]; primary sample #3, 72 hours, read-out: IC50, DLBCL#3) of 12.2 nM and an IC50 ([1]; primary sample #4, 72 hours, read-out: IC50, DLBCL#4) of 4.9 nM. For the same compound, the IC50 [1, 2] was 21.6 nM, the IC50 (OCI-Ly10 DLBCL cells) was 246 nM and the IC50 (Jurkat cells) was 8.7 ± 0.7 nM. It also gave an IC50 (OCI-Ly3 DLBCL cells) of 24.1 nM.
